Results from ChEMBL document CHEMBL3259752, “Cell permeable vanX inhibitors as vancomycin re-sensitizing agents” (Bioorg Med Chem Lett, 2014).
Activity calls are given as the source filed them. No cut-off for these calls is given here.

Legend:
[1] = Cytotoxicity against HEK293 cells after 72 hrs by MTT assay; assay type: cell-based; details: human
[2] = molecular target: T1, D-alanyl-D-alanine dipeptidase (Enterococcus faecium, UniProt Q06241); assay: Inhibition of Enterococcus faecium VanX expressed in Escherichia coli BL21 (DE3) cells using D-alanyl-alpha-R-phenylthioglycine as substrate by colorimetric assay
T1 sequence (Q06241 whole entry): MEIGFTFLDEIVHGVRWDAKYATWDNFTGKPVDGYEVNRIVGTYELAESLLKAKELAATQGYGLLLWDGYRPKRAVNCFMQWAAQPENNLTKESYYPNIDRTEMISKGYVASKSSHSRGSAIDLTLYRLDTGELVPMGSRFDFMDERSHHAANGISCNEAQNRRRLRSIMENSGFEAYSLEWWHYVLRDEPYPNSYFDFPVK

[3] = test system: Enterococcus faecium; assay: Increase in vancomycin sensitivity in vancomycin-resistant Enterococcus faecium E12-2 assessed as reduction in vancomycin MIC at 72 ug/ml by checkerboard analysis; assay type: functional, organism-based
[4] = test system: Enterococcus faecium; assay: Antibacterial activity against vancomycin-resistant Enterococcus faecium E12-2 assessed as growth inhibition by checkerboard analysis; assay type: functional, organism-based
[5] = test system: Enterococcus faecium; assay: Increase in vancomycin sensitivity in vancomycin-resistant Enterococcus faecium E12-2 assessed as reduction in vancomycin MIC at 212 ug/ml by checkerboard analysis; assay type: functional, organism-based

Row | Compound | CC50 at 72 h [1] | Ki [2] | Activity [3] | inhibition [4] | Activity [5]
1 | CN[C@H](CC(C)C)C(=O)N[C@H]1C(=O)N[C@@H](CC(N)=O)C(=O)N[C@H]2C(=O)N[C@H]3C(=O)N[C@H](C(=O)N[C@H](C(=O)O)c4cc(O)cc(O)c4-c4cc3ccc4O)[C@H](O)c3ccc(c(Cl)c3)Oc3cc2cc(c3O[C@@H]2O[C@H](CO)[C@@H](O)[C@H](O)[C@H]2O[C@H]2C[C@](C)(N)[C@H](O)[C@H](C)O2)Oc2ccc(cc2Cl)[C@H]1O [VANCOMYCIN] | > 100 µM | – | – | – | –
2 | O=C(N[C@@H](C(=O)O)c1ccccc1)c1cccc(=S)n1O | 64 µM | 2.74 µM | Active | inactive | –
3 | C[C@H](CP(=O)(O)[C@@H](C)N)C(=O)O | – | 1.5 µM | – | – | –
4 | CC1(C)S[C@@H]2[C@H](NC(=O)[C@H](N)c3ccc(O)cc3)C(=O)N2[C@H]1C(=O)O [AMOXICILLIN] | 24 µM | – | – | – | –
5 | C[C@@H](NC(=O)c1cccc(=S)n1O)C(=O)O | 76 µM | 6.84 µM | – | inactive | Active
6 | C[C@@H](N)P(=O)(O)C[C@H](C(=O)O)c1ccccc1 | – | 2.9 µM | – | – | –
7 | CC(C)[C@H](CP(=O)(O)[C@@H](C)N)C(=O)O | – | 6.1 µM | – | – | –
